Results reported in US11958855B2, “Aurora kinase inhibitors for inhibiting mitotic progression” (Millennium Pharmaceuticals, Inc., priority 2006, dated 2024).

How the values were obtained:
[1] = tested on: HCT-116 human colon carcinoma xenograft; assay: In vivo tumor efficacy model, mouse HCT116 human colon carcinoma xenograft
Method: In Vivo Tumor Efficacy Model
HCT-116 (1×10^6) cells in McCoy's 5A medium were aseptically injected into the subcutaneous space in the right dorsal flank of female CD-1 nude mice (age 8 weeks, Charles River) using a 23-ga needle. Tumor volumes were calculated using standard procedures (0.5×(length×width^2)). […]. Doses (0.1 mL) were administered via 22 gauge oral gavage needle. Control animals received vehicle alone. Animals were dosed once daily for 21 days, and there were 10 animals in each group. Tumor size and body weight were measured twice per week. Compounds 1 and iii were well-tolerated at all doses in this study. […]

SW480 cells = assay: BrdU cell proliferation assay in SW480 cells
Method: BrdU Cell Proliferation Assay
(§1) Cell proliferation of each cell line was measured using the cell proliferation enzyme-linked immunosorbent assay (ELISA), 5-bromo-2′-deoxyuridine (BrdU) colorimetric kit according to the manufacturer's recommendations. The assay measures cell proliferation by quantifying BrdU incorporation into replicating deoxyribonucleic acid (DNA). Briefly, each well was incubated with 10 μL of BrdU labeling reagent for 2 hours at 37° C. in a humidified cell culture chamber. After aspiration of the labeling media, the cells were fixed and denatured by adding 200 μL of ethanol to each well and incubated for 30 minutes at room temperature.
(§2) Concentration response curves were generated by calculating the decrease in optical density in samples treated with test compound relative to the DMSO-treated controls.

HCT116 cells = assay: BrdU cell proliferation assay in HCT116 cells
Method: BrdU Cell Proliferation Assay
as §1, §2

Aurora A = target: T1, Aurora A (Homo sapiens, UniProt O14965); assay: pT288 Aurora A autophosphorylation assay; assay type: cell-based; details: HCT-116 cells, 60 minutes treatment
T1 construct: Human tumor cells (HCT-116, obtained from ATCC) were grown on 96-well dishes; host or cells: HCT-116
T1 sequence (O14965 1-403): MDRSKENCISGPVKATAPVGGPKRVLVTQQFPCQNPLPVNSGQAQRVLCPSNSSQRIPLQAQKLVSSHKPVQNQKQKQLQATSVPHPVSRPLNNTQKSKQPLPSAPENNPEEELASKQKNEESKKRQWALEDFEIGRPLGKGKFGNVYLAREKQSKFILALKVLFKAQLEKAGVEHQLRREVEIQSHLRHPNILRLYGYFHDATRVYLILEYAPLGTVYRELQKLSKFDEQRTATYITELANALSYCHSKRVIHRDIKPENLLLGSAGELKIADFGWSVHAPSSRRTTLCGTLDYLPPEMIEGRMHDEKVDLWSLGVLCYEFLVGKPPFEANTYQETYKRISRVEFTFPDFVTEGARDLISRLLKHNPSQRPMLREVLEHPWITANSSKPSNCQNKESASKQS
Method: pT288 Aurora A Autophosphorylation Assay.
After incubation, the growth medium was replaced with 75 μL of fresh media and 25 μL of test compound was added to the cells in two-fold serial dilutions in dimethyl sulfoxide (DMSO) to achieve final concentrations ranging from 5 to 0.010 μM. Test compound at each dilution was added as replicates in 4 rows on the dish, and DMSO (20 nM) was added to each well of two columns for the untreated controls. The cells were treated with test compound or DMSO for 60 minutes at 37° C. in a humidified cell culture chamber. Cells were then fixed with 4% para-formaldehyde in phosphate-buffered saline (PBS) for 10 minutes, permeated with 0.5% Triton X-100 in PBS for 10 minutes, and washed twice in PBS.
Cells were visualized using a Discovery-1 High Content Imaging System. Images from nine or sixteen sites per well were captured at 200× magnification. Inhibition of Aurora A was determined by measuring pT288 (Aurora A autophosphorylation) fluorescent intensity within MPM2 immunopositive (mitotic) cells using Metamorph software. Concentration response curves were generated by calculating the decrease of pT288 fluorescent intensity in test compound-treated samples relative to the DMSO-treated controls, and growth inhibition (IC50) values were determined from those curves.

[2] = oral, once daily for 21 days, at each dose

| SMILES | in vivo potency compared with compound iii ([1]; mouse HCT116 human colon carcinoma xenograft model) | tolerability ([1]; mouse, in vivo, po) | tumor growth delay (TGD) compared with compound iii [1, 2] | tumor growth inhibition (TGI) compared with compound iii [1, 2] | BrdU SW480 LD50 (SW480 cells) [µM] | BrdU HCT116 LD50 (HCT116 cells) [µM] | IC50 (Aurora A) [nM] | tolerability ([1]; oral, once daily for 21 days, all doses, female CD-1 nude mice) |
| --- | --- | --- | --- | --- | --- | --- | --- | --- |
| COc1cc(Nc2ncc3c(n2)-c2ccc(Cl)cc2C(c2c(F)cccc2OC)=NC3)ccc1C(=O)O [Compound 1, 4-{[9-chloro-7-(2-fluoro-6-methoxyphenyl)-5H-pyrimido[5,4-d][2]benzazepin-2-yl]amino}-2-methoxybenzoic acid] | more potent than compound iii | well-tolerated | longer tumor growth delay | greater tumor growth inhibition | 0.41 | 0.03 |  |  |
| O=C(O)c1ccc(Nc2ncc3c(n2)-c2ccc(Cl)cc2C(c2ccccc2F)=NC3)cc1 [i] |  |  |  |  | 6.502 | 0.707 |  |  |
| COc1cc(Nc2ncc3c(n2)-c2ccc(Cl)cc2C(c2ccccc2F)=NC3)ccc1C(=O)O [ii] |  |  |  |  | 7.579 | 0.758 | 150 |  |
| COc1cccc(F)c1C1=NCc2cnc(Nc3ccc(C(=O)O)cc3)nc2-c2ccc(Cl)cc21 [iii] |  |  |  |  | 0.94 | 0.13 | 18 | well-tolerated |
